Measurements taken from the NIST ThermoML archive (doi:10.1016/j.jct.2004.07.015).

What was measured:
[1] = 101.33 kPa, Liquid
[2] = xn = mol fraction of the nth substance listed; settings: 101.3 kPa, Liquid

C1COCO1 [1,3-dioxolane]
[1]
Settings	mass density [kg/m3]	speed of sound [m/s]
298.15 K	1058.98	1340.2
313.15 K	1040	1270.9

C1COCO1 [1,3-dioxolane] + CC(C)(C)O
[2]
Settings	mass density, 298.15 K [kg/m3]	mass density, 313.15 K [kg/m3]	speed of sound, 298.15 K [m/s]	speed of sound, 313.15 K [m/s]
x1 = 0.0495	789.79	–	1129.2	–
x1 = 0.0567	–	775.49	–	1065.2
x1 = 0.0949	–	782.77	–	1071.1
x1 = 0.0965	798.83	–	1135.6	–
x1 = 0.1973	–	803.78	–	1087.4
x1 = 0.1996	820.33	–	1151	–
x1 = 0.2909	840.96	–	1165.8	–
x1 = 0.2919	–	824.8	–	1103.5
x1 = 0.4039	–	851.81	–	1123.4
x1 = 0.4049	868.7	–	1186.2	–
x1 = 0.4951	–	875.4	–	1141.2
x1 = 0.4972	892.83	–	1204.9	–
x1 = 0.5948	–	903.12	–	1162.4
x1 = 0.5974	920.82	–	1226.8	–
x1 = 0.6997	–	934.45	–	1187.1
x1 = 0.7033	952.73	–	1252.5	–
x1 = 0.8031	–	967.86	–	1213.5
x1 = 0.8033	985.46	–	1279.3	–
x1 = 0.8944	1017.75	–	1305.9	–
x1 = 0.8959	–	1000.17	–	1239.6
x1 = 0.9439	1036.49	–	1321.3	–
x1 = 0.9464	–	1018.99	–	1254.3

C1COCO1 [1,3-dioxolane] + CC(C)CO
[2]
Settings	mass density, 298.15 K [kg/m3]	mass density, 313.15 K [kg/m3]	speed of sound, 298.15 K [m/s]	speed of sound, 313.15 K [m/s]
x1 = 0.0434	–	793.86	–	1140.5
x1 = 0.0675	810.83	–	1193.2	–
x1 = 0.0922	–	802.94	–	1143.6
x1 = 0.0932	815.89	–	1195.3	–
x1 = 0.1938	–	822.73	–	1151.2
x1 = 0.2005	837.99	–	1205.1	–
x1 = 0.2946	858.48	843.76	1214.8	1159.9
x1 = 0.395	881.68	–	1226.7	–
x1 = 0.3984	–	866.86	–	1170.5
x1 = 0.5044	–	892.29	–	1182.9
x1 = 0.5062	908.95	–	1241.8	–
x1 = 0.6042	–	917.95	–	1196.4
x1 = 0.6065	935.18	–	1258.1	–
x1 = 0.6962	–	943.18	–	1211.4
x1 = 0.6977	960.69	–	1274.3	–
x1 = 0.7995	991.23	–	1295.4	–
x1 = 0.8009	–	974.09	–	1230.6
x1 = 0.8928	–	1003.34	–	1249.5
x1 = 0.8957	1022.45	–	1316.5	–
x1 = 0.9439	–	1020.41	–	1260.2
x1 = 0.9451	1039.33	–	1327.6	–

C1COCCO1 [1,4-dioxane]
[1]
Settings	mass density [kg/m3]	speed of sound [m/s]
298.15 K	1027.96	1344.8
313.15 K	1010.8	1279.8

C1COCCO1 [1,4-dioxane] + CC(C)(C)O
[2]
Settings	mass density, 298.15 K [kg/m3]	mass density, 313.15 K [kg/m3]	speed of sound, 298.15 K [m/s]	speed of sound, 313.15 K [m/s]
x1 = 0.0502	791.11	–	1133.5	–
x1 = 0.0525	–	776.05	–	1069.8
x1 = 0.0802	797.29	–	1139.5	–
x1 = 0.0886	–	783.75	–	1078.1
x1 = 0.2051	–	808.89	–	1102.3
x1 = 0.2164	826.41	–	1166.2	–
x1 = 0.287	–	827.2	–	1118.9
x1 = 0.2915	843.19	–	1180.4	–
x1 = 0.3926	–	851.46	–	1139.9
x1 = 0.3944	867.16	–	1201.4	–
x1 = 0.4938	–	875.49	–	1160.8
x1 = 0.496	891.65	–	1222.4	–
x1 = 0.592	–	899.61	–	1181.6
x1 = 0.5929	915.92	–	1243.8	–
x1 = 0.6814	938.8	–	1264.1	–
x1 = 0.6904	–	924.78	–	1202.7
x1 = 0.7994	–	953.91	–	1227.9
x1 = 0.8029	971.23	–	1293.2	–
x1 = 0.8871	–	978.21	–	1250.3
x1 = 0.8893	995.28	–	1315.3	–
x1 = 0.9287	1006.7	–	1325.5	–
x1 = 0.9421	–	993.91	–	1264.2

CC(C)CO [2-methyl-1-propanol]
[1]
Settings	mass density [kg/m3]	speed of sound [m/s]
298.15 K	797.83	1188.5
313.15 K	785.96	1138.4

CC(C)CO [2-methyl-1-propanol] + C1COCCO1
[2]
Settings	mass density, 298.15 K [kg/m3]	mass density, 313.15 K [kg/m3]	speed of sound, 298.15 K [m/s]	speed of sound, 313.15 K [m/s]
x2 = 0.0559	809.27	–	1196.2	–
x2 = 0.0612	–	798.12	–	1146
x2 = 0.0898	–	803.92	–	1149.5
x2 = 0.0943	817.3	–	1201.4	–
x2 = 0.1946	–	825.35	–	1162.3
x2 = 0.1959	838.82	–	1215.5	–
x2 = 0.2981	860.89	–	1229.7	–
x2 = 0.3039	–	848.25	–	1176.2
x2 = 0.4033	–	869.73	–	1189.2
x2 = 0.4039	884.22	–	1245.1	–
x2 = 0.5062	907.2	–	1260.6	–
x2 = 0.5086	–	892.99	–	1203.6
x2 = 0.5674	–	906.3	–	1211.8
x2 = 0.603	929.49	–	1276.1	–
x2 = 0.7018	–	937.3	–	1232
x2 = 0.7021	952.9	–	1292.4	–
x2 = 0.7966	976	–	1308.7	–
x2 = 0.8296	–	967.84	–	1251.9
x2 = 0.8879	–	982.25	–	1261
x2 = 0.8943	1000.57	–	1326	–
x2 = 0.9298	–	992.74	–	1267.7
x2 = 0.9328	1010.53	–	1333	–

CC(C)(C)O [2-methylpropan-2-ol]
[1]
Settings	mass density [kg/m3]	speed of sound [m/s]
298.15 K	780.86	1122.8
313.15 K	765.16	1057.4
